Results from patent publication US20150273069A1, “FATTY ACID ACYLATED AMINO ACIDS FOR ORAL PEPTIDE DELIVERY” (NOVO NORDISK A/S, priority 2012, published 2015).

Key:
Caco-2 cell monolayers = experiment: Transport of semaglutide across Caco-2 cell monolayers in the presence of fatty acid acylated amino acids; assay type: in vitro ADME; conditions: for Papp: permeation of semaglutide (100 μM), apical to basolateral, with 0.5 mM fatty acid acylated amino acid, pH 7.4; for permeation enhancing effect: on semaglutide across Caco-2 monolayers, compared among the fatty acid acylated amino acids tested
Experimental: (§1) Caco-2 cells were obtained from the American Type Culture Collection (Manassas, Va.). Cells were seeded in culturing flasks and passaged in Dulbecco's Modified Eagle′ medium supplemented with 10% fetal bovine serum, 1% penicillin/streptomycin (100 U/ml and 100 μg/ml, respectively), 1% L-glutamine and 1% nonessential amino acids. Caco-2 cells were seeded onto tissue culture treated polycarbonate filters in 12-well Transwell® plates (1.13 cm2, 0.4 μm pore size) at a density of 10^5 cells/well. Monolayers were grown in an atmosphere of 5% CO2-95% O2 at 37° C. Growth media were replaced every other day. The experiment was performed on day 10-14 after seeding of Caco-2 cells.
(§2) The amount of compound transported from the donor chamber (apical side) to the receiver chamber (basolateral side) was measured. The transport study was initiated by adding 400 μl solution (100 μM of semaglutide+0.5 mM fatty acid acylated amino acids) and 0.4 μCi/μl [3H]manntiol in transport buffer to the donor chamber and 1000 μl transport buffer to the receiver chamber. The transport buffer consisted of Hank's balanced saline solution containing 10 mM HEPES, […] to pH 7.4 after addition of compounds. The transport of [^3H]mannitol, a marker for paracellular transport, was measured to verify the integrity of the epithelium.
(§3) Before the experiment, the Caco-2 cells were equilibrated for 60 min with transport buffer on both sides of the epithelium. Buffer was then removed and the experiment initiated. Donor samples (20 μl) were taken at 0 min and at the end of the experiment. Receiver samples (200 μl) were taken every 15 min. The study was performed in an atmosphere of 5% CO2-95% O2 at 37° C. on a shaking plate (30 rpm).
(§4) In all samples with semaglutide and mannitol, the concentration was determined using a LOCI assay and scintillation counter, respectively.
(§5) Before and during the experiment the transepithelial electrical resistance (TEER) of the cell monolayers was monitored. In selected experiments, the transport buffer were changed to culturing medium after end of experiment and the TEER measured 24 h after experiment. The TEER was measured with EVOM™ Epithelial Voltohmmeter connected to Chopsticks.

[1] = as above; assay type: in vitro ADME; conditions: human, Caco-2; permeation of semaglutide (100 μM), apical to basolateral, permeation enhancer: None, pH 7.4
Experimental: as §1, §2, §3, §4, §5

Papp (Caco-2 cell monolayers) | permeation enhancing effect (Caco-2 cell monolayers) | Papp A→B at 100 μM [1] [×10⁻⁶ cm/s] | SMILES
5.60 10^−8 cm/s | – | – | CCCCCCCCCCCC(=O)N[C@@H](Cc1ccccc1)C(=O)[O-].[Na+] [Sodium N-dodecanoyl L-phenylalaninate]
0.31 10^−8 cm/s | – | – | CCCCCCCCCC(=O)N[C@@H](CC(N)=O)C(=O)[O-].[Na+] [Sodium N-decanoyl L-asparaginate]
63.88 10^−8 cm/s | greatest effect | – | CCCCCCCCCCCCCC(=O)N[C@@H](CC(C)C)C(=O)[O-].[Na+] [Sodium N-myristoyl L-leucinate]
2.12 10^−8 cm/s | – | – | CCCCCCCCCC(=O)N[C@@H](CC(C)C)C(=O)[O-].[Na+] [Sodium N-decanoyl L-leucinate]
– | – | 0.0065 | CC[C@H](C)[C@H](NC(=O)[C@H](Cc1ccccc1)NC(=O)[C@H](CCC(=O)O)NC(=O)[C@H](CCCCNC(=O)COCCOCCNC(=O)COCCOCCNC(=O)CC[C@H](NC(=O)CCCCCCCCCCCCCCCCC(=O)O)C(=O)O)NC(=O)[C@H](C)NC(=O)[C@H](C)NC(=O)[C@H](CCC(N)=O)NC(=O)CNC(=O)[C@H](CCC(=O)O)NC(=O)[C@H](CC(C)C)NC(=O)[C@H](Cc1ccc(O)cc1)NC(=O)[C@H](CO)NC(=O)[C@H](CO)NC(=O)[C@@H](NC(=O)[C@H](CC(=O)O)NC(=O)[C@H](CO)NC(=O)[C@@H](NC(=O)[C@H](Cc1ccccc1)NC(=O)[C@@H](NC(=O)CNC(=O)[C@H](CCC(=O)O)NC(=O)C(C)(C)NC(=O)[C@@H](N)Cc1cnc[nH]1)[C@@H](C)O)[C@@H](C)O)C(C)C)C(=O)N[C@@H](C)C(=O)N[C@@H](Cc1c[nH]c2ccccc12)C(=O)N[C@@H](CC(C)C)C(=O)N[C@H](C(=O)N[C@@H](CCCNC(=N)N)C(=O)NCC(=O)N[C@@H](CCCNC(=N)N)C(=O)NCC(=O)O)C(C)C [semaglutide, N-epsilon26-[2-(2-{2-[2-(2-{2-[(S)-4-carboxy-4-(17-carboxyheptadecanoylamino)butyrylamino]ethoxy}ethoxy)acetylamino]ethoxy}ethoxy)acetyl][Aib8,Arg34]GLP-1(7-37), reference compound]
2.53 10^−8 cm/s | – | – | CCCCCCCCCCCC(=O)N[C@@H](CC(C)C)C(=O)[O-].[Na+] [Sodium N-dodecanoyl L-leucinate]
78.83 10^−8 cm/s | greatest effect | – | CCCCCCCCCCCCCC(=O)N[C@H](C(=O)[O-])C(C)C.[Na+] [Sodium N-myristoyl L-valinate]
